Experimental data reported in patent publication US11207325B2, “Triazolopyrimidine compounds and uses thereof” (Novartis AG, priority 2014, dated 2021).

System: H3K27 methylation in G401 cell
Assay: ELISA (H3K27 methylation) assay
Type: cell-based
Details: Homo sapiens, G-401; ELISA Qualified assay (H3K27 methylation); read-out: (c) IC50 (μM), ELISA Qualified
Text: ELISA (H3K27 Methylation) Assay

SMILES	IC50 [µM]
CN(C)Cc1ccc(-c2cnc(NCc3cccc4c3CCO4)n3cnnc23)cc1 [Example 11, N-((2,3-dihydrobenzofuran-4-yl)methyl)-8-(4-((dimethylamino)methyl)phenyl)-[1,2,4]triazolo[4,3-c]pyrimidin-5-amine]	0.0144
CS(=O)(=O)c1ccc(-c2cnc(NCc3cccc4c3CCO4)n3cnnc23)cc1 [Example 12, N-((2,3-dihydrobenzofuran-4-yl)methyl)-8-(4-(methylsulfonyl)phenyl)-[1,2,4]triazolo[4,3-c]pyrimidin-5-amine]	0.0176
c1ccc(-c2cnc(NCc3cccc4c3CCO4)n3cnnc23)cc1 [Example 13, N-((2,3-dihydrobenzofuran-4-yl)methyl)-8-phenyl-[1,2,4]triazolo[4,3-c]pyrimidin-5-amine]	0.139
CC(c1ccc(-c2cnc(NCc3cccc4c3CCO4)n3cnnc23)cc1)N1CCCC1 (stereo not drawn) [Example 14, N-((2,3-dihydrobenzofuran-4-yl)methyl)-8-(4-(1-(pyrrolidin-1-yl)ethyl)phenyl)-[1,2,4]triazolo[4,3-c]pyrimidin-5-amine]	0.0274
CN(C)S(=O)(=O)c1ccc(-c2cnc(NCc3cccc4c3CCO4)n3cnnc23)cc1 [Example 15, 4-(5-(((2,3-dihydrobenzofuran-4-yl)methyl)amino)-[1,2,4]triazolo[4,3-c]pyrimidin-8-yl)-N,N-dimethylbenzenesulfonamide]	0.0198
c1cncc(-c2cnc(NCc3cccc4c3CCO4)n3cnnc23)c1 [Example 16, N-((2,3-dihydrobenzofuran-4-yl)methyl)-8-(pyridin-3-yl)-[1,2,4]triazolo[4,3-c]pyrimidin-5-amine]	0.0604
CS(=O)(=O)Nc1ccc(-c2cnc(NCc3cccc4c3CCO4)n3cnnc23)cc1 [Example 19, N-(4-(5-(((2,3-dihydrobenzofuran-4-yl)methyl)amino)-[1,2,4]triazolo[4,3-c]pyrimidin-8-yl)phenyl)methanesulfonamide]	0.0401
CN1CCN(c2ccc(-c3cnc(NCc4cccc5c4CCO5)n4cnnc34)cn2)CC1 [Example 20, N-((2,3-dihydrobenzofuran-4-yl)methyl)-8-(6-(4-methylpiperazin-1-yl)pyridin-3-yl)-[1,2,4]triazolo[4,3-c]pyrimidin-5-amine]	0.0783
COc1ccc(-c2cnc(NCc3cccc4c3CCO4)n3cnnc23)cn1 [Example 21, N-((2,3-dihydrobenzofuran-4-yl)methyl)-8-(6-methoxypyridin-3-yl)-[1,2,4]triazolo[4,3-c]pyrimidin-5-amine]	0.15
CN(C)Cc1ccc(-c2cnc(NCc3c(F)ccc4c3CCO4)n3cnnc23)cc1 [Example 23, 8-(4-((dimethylamino)methyl)phenyl)-N-((5-fluoro-2,3-dihydrobenzofuran-4-yl)methyl)-[1,2,4]triazolo[4,3-c]pyrimidin-5-amine]	0.0424
Cc1nn(C)c(C)c1-c1cnc(NCc2cccc3c2CCO3)n2cnnc12 [Example 24, N-((2,3-dihydrobenzofuran-4-yl)methyl)-8-(1,3,5-trimethyl-1H-pyrazol-4-yl)-[1,2,4]triazolo[4,3-c]pyrimidin-5-amine]	0.162
Cn1cc(-c2cnc(NCc3cccc4c3CCO4)n3cnnc23)cn1 [Example 25, N-((2,3-dihydrobenzofuran-4-yl)methyl)-8-(1-methyl-1H-pyrazol-4-yl)-[1,2,4]triazolo[4,3-c]pyrimidin-5-amine]	0.406
CS(=O)(=O)c1ccc(-c2cnc(NCc3cccc4c3CCO4)n3cnnc23)c(F)c1 [Example 26, N-((2,3-dihydrobenzofuran-4-yl)methyl)-8-(2-fluoro-4-(methylsulfonyl)phenyl)-[1,2,4]triazolo[4,3-c]pyrimidin-5-amine]	0.0448
CS(=O)(=O)c1cccc(-c2cnc(NCc3cccc4c3CCO4)n3cnnc23)c1 [Example 27, N-((2,3-dihydrobenzofuran-4-yl)methyl)-8-(3-(methylsulfonyl)phenyl)-[1,2,4]triazolo[4,3-c]pyrimidin-5-amine]	0.365
CS(=O)(=O)c1ccc(-c2cnc(NCc3cccc4c3CCO4)n3cnnc23)cn1 [Example 28, N-((2,3-dihydrobenzofuran-4-yl)methyl)-8-(6-(methylsulfonyl)pyridin-3-yl)-[1,2,4]triazolo[4,3-c]pyrimidin-5-amine]	0.415
O=S(=O)(c1ccc(-c2cnc(NCc3cccc4c3CCO4)n3cnnc23)cc1)C1CCNCC1 [Example 29, N-((2,3-dihydrobenzofuran-4-yl)methyl)-8-(4-(piperidin-4-ylsulfonyl)phenyl)-[1,2,4]triazolo[4,3-c]pyrimidin-5-amine]	0.214
Cc1nn(C)cc1-c1cnc(NCc2cccc3c2CCO3)n2cnnc12 [Example 30, N-((2,3-dihydrobenzofuran-4-yl)methyl)-8-(1,3-dimethyl-1H-pyrazol-4-yl)-[1,2,4]triazolo[4,3-c]pyrimidin-5-amine]	0.069
Fc1ccccc1-c1cnc(NCc2cccc3c2CCO3)n2cnnc12 [Example 31, N-((2,3-dihydrobenzofuran-4-yl)methyl)-8-(2-fluorophenyl)-[1,2,4]triazolo[4,3-c]pyrimidin-5-amine]	0.0298

SMILES	IC50 [µM]
Clc1ccccc1-c1cnc(NCc2cccc3c2CCO3)n2cnnc12 [Example 32, 8-(2-chlorophenyl)-N-((2,3-dihydrobenzofuran-4-yl)methyl)-[1,2,4]triazolo[4,3-c]pyrimidin-5-amine]	0.115
CS(=O)(=O)Nc1ccc(-c2cnc(NCc3cccc4c3CCO4)n3cnnc23)cc1F [Example 33, N-(4-(5-(((2,3-dihydrobenzofuran-4-yl)methyl)amino)-[1,2,4]triazolo[4,3-c]pyrimidin-8-yl)-2-fluorophenyl)methanesulfonamide]	0.297
OCCn1cc(-c2cnc(NCc3cccc4c3CCO4)n3cnnc23)cn1 [Example 34, 2-(4-(5-(((2,3-dihydrobenzofuran-4-yl)methyl)amino)-[1,2,4]trizaolo[4,3-c]pyrimidin-8-yl)-1H-pyrazol-1-yl)ethanol]	1.95
CN(C)CCc1ccc(-c2cnc(NCc3cccc4c3CCO4)n3cnnc23)cc1 [Example 35, N-((2,3-dihydrobenzofuran-4-yl)methyl)-8-(4-(2-(dimethylamino)ethyl)phenyl)-[1,2,4]triazolo[4,3-c]pyrimidin-5-amine]	0.0334
Cc1cc(-c2cnc(NCc3cccc4c3CCO4)n3cnnc23)cnc1N1CCN(C)CC1 [Example 36, N-((2,3-dihydrobenzofuran-4-yl)methyl)-8-(5-methyl-6-(4-methylpiperazin-1-yl)pyridin-3-yl)-[1,2,4]triazolo[4,3-c]pyrimidin-5-amine]	0.0683
CS(=O)(=O)c1ccc(-c2cnc(NCc3c(F)ccc4c3CCO4)n3cnnc23)cc1 [Example 37, N-((5-fluoro-2,3-dihydrobenzofuran-4-yl)methyl)-8-(4-(methylsulfonyl)phenyl)-[1,2,4]triazolo[4,3-c]pyrimidin-5-amine]	0.0134
OCCOc1ccc(-c2cnc(NCc3cccc4c3CCO4)n3cnnc23)cc1 [Example 38, 2-(4-(5-(((2,3-dihydrobenzofuran-4-yl)methyl)amino)-[1,2,4]triazolo[4,3-c]pyrimidin-8-yl)phenoxy)ethanol]	0.202
CS(=O)(=O)Nc1ccc(-c2cnc(NCc3c(F)ccc4c3CCO4)n3cnnc23)cc1F [Example 39, N-(2-fluoro-4-(5-(((5-fluoro-2,3-dihydrobenzofuran-4-yl)methyl)amino)-[1,2,4]triazolo[4,3-c]pyrimidin-8-yl)phenyl)methanesulfonamide]	0.0227
O=S(=O)(NCCO)c1ccc(-c2cnc(NCc3cccc4c3CCO4)n3cnnc23)cc1 [Example 40]	1.34
O=C(c1ccc(-c2cnc(NCc3cccc4c3CCO4)n3cnnc23)cc1)N1CCNCC1 [Example 41, (4-(5-(((2,3-dihydrobenzofuran-4-yl)methyl)amino)-[1,2,4]triazolo[4,3-c]pyrimidin-8-yl)phenyl)(piperazin-1-yl)methanone]	0.375
CN(C)C(=O)c1ccc(-c2cnc(NCc3cccc4c3CCO4)n3cnnc23)cc1 [Example 42, 4-(5-(((2,3-dihydrobenzofuran-4-yl)methyl)amino)-[1,2,4]triazolo[4,3-c]pyrimidin-8-yl)-N,N-dimethylbenzamide]	0.22
CN(C)C(=O)c1cccc(-c2cnc(NCc3cccc4c3CCO4)n3cnnc23)c1 [Example 43, 3-(5-(((2,3-dihydrobenzofuran-4-yl)methyl)amino)-[1,2,4]triazolo[4,3-c]pyrimidin-8-yl)-N,N-dimethylbenzamide]	0.247
Fc1ccc2c(c1CNc1ncc(-c3cccnc3)c3nncn13)CCO2 [Example 44, N-((5-fluoro-2,3-dihydrobenzofuran-4-yl)methyl)-8-(pyridin-3-yl)-[1,2,4]triazolo[4,3-c]pyrimidin-5-amine]	0.0097
Fc1ccc2c(c1CNc1ncc(-c3ccncc3)c3nncn13)CCO2 [Example 45, N-((5-fluoro-2,3-dihydrobenzofuran-4-yl)methyl)-8-(pyridin-4-yl)-[1,2,4]triazolo[4,3-c]pyrimidin-5-amine]	0.0086
CC(c1ccc(-c2cnc(NCc3c(F)ccc4c3CCO4)n3cnnc23)cc1)N1CCCC1 (stereo not drawn) [Example 46, N-((5-fluoro-2,3-dihydrobenzofuran-4-yl)methyl)-8-(4-(1-(pyrrolidin-1-yl)ethyl)phenyl)-[1,2,4]triazolo[4,3-c]pyrimidin-5-amine]	0.0048
Fc1ccncc1-c1cnc(NCc2c(F)ccc3c2CCO3)n2cnnc12 [Example 47, N-((5-fluoro-2,3-dihydrobenzofuran-4-yl)methyl)-8-(4-fluoropyridin-3-yl)-[1,2,4]-triazolo[4,3-c]pyrimidin-5-amine]	0.0103
Nc1ccc(-c2cnc(NCc3cccc4c3CCO4)n3cnnc23)cn1 [Example 48, 8-(6-aminopyridin-3-yl)-N-((2,3-dihydrobenzofuran-4-yl)methyl)-[1,2,4]triazolo[4,3-c]pyrimidin-5-amine]	0.261
Cc1cc(-c2cnc(NCc3cccc4c3CCO4)n3cnnc23)ccc1C(=O)N(C)C [Example 49, 4-(5-(((2,3-dihydrobenzofuran-4-yl)methyl)amino)-[1,2,4]triazolo[4,3-c]pyrimidin-8-yl)-N,N,2-trimethylbenzamide]	0.366
